# Data taken from US20240425517A1, “NOVEL COMPOUND FOR DEGRADATION OF TARGET PROTEIN OR POLYPEPTIDE BY POLYUBIQUITINATION” (PRAZER THERAPEUTICS INC., priority 2021, published 2024).
# Counter-ions that a name gives are not always drawn.
# Target: T1, BRD4 proteins (Homo sapiens, UniProt O60885)
# T1 construct: endogenous in cells; host or cells: MM.1S
# Test: Degradation of BRD4 protein in MM.1S cell lines (Western blot densitometry)
# Assay type: cell-based
# Conditions: MM.1S cells, 10 μM, 24 hours
# Outline: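 MM.1S cells in RPMI-1640 with 10% FBS were treated with each degrader at 10 μM for 24 h. RIPA lysates were analysed by SDS-PAGE/Western blot with β-actin as reference, and BRD4 band densitometry was scored as reduction <40% (+), 40-<70% (++) or ≥70% (+++).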
row,Structure (SMILES),BRD4 degrading capacity (%)
1,"Cc1sc2c(c1C)C(c1ccc(Cl)cc1)=N[C@@H](CCOC(=O)CCCCCCCCCC(=O)Nc1cccc(C#CCN)c1)c1nnc(C)n1-2.Cl [5-109′, (S)-2-(4-(4-chlorophenyl)-2,3,9-trimethyl-6H-thieno[3,2-f][1,2,4]triazolo[4,3-a][1,4]diazepin-6-yl)ethyl 11-((3-(3-aminoprop-1-yn-1-yl)phenyl)amino)-11-oxoundecanoate hydrochloride]",+++ (the degrading capacity was reduced by 70% or more)
2,"COC(=O)c1ccc(NC(=O)CCCCCCCCCC(=O)OCC[C@@H]2N=C(c3ccc(Cl)cc3)c3c(sc(C)c3C)-n3c(C)nnc32)cc1C#CCN.Cl [5-110′, methyl (S)-2-(3-aminoprop-1-yn-1-yl)-4-(11-(2-(4-(4-chlorophenyl)-2,3,9-trimethyl-6H-thieno[3,2-f][1,2,4]triazolo[4,3-a][1,4]diazepin-6-yl)ethoxy)-11-oxoundecanamido)benzoate hydrochloride]",++ (the degrading capacity was reduced by 40% to 70% (exclusive of 70))
3,"Cc1sc2c(c1C)C(c1ccc(Cl)cc1)=N[C@@H](CC(=O)NCCCCCCCNC(=O)c1ccc(-c3ccc(C#CCN)cc3)o1)c1nnc(C)n1-2.Cl [5-111′, (S)-5-(4-(3-aminoprop-1-yn-1-yl)phenyl)-N-(7-(2-(4-(4-chlorophenyl)-2,3,9-trimethyl-6H-thieno[3,2-f][1,2,4]triazolo[4,3-a][1,4]diazepin-6-yl)acetamido)heptyl)furan-2-carboxamide hydrochloride]",++ (the degrading capacity was reduced by 40% to 70% (exclusive of 70))
4,"COC(=O)c1ccc(NC(=O)CCCOC(=O)C[C@@H]2N=C(c3ccc(Cl)cc3)c3c(sc(C)c3C)-n3c(C)nnc32)cc1C#CCN [5-115′, methyl (S)-2-(3-aminoprop-1-yn-1-yl)-4-(4-(2-(4-(4-chlorophenyl)-2,3,9-trimethyl-6H-thieno[3,2-f][1,2,4]triazolo[4,3-a][1,4]diazepin-6-yl)acetoxy)butanamido)benzoate hydrochloride]",+++ (the degrading capacity was reduced by 70% or more)
5,"COC(=O)c1ccc(C#CCNC(=O)C[C@@H]2N=C(c3ccc(Cl)cc3)c3c(sc(C)c3C)-n3c(C)nnc32)cc1C#CCN.Cl [5-116′, methyl (S)-2-(3-aminoprop-1-yn-1-yl)-4-(3-(2-(4-(4-chlorophenyl)-2,3,9-trimethyl-6H-thieno[3,2-f][1,2,4]triazolo[4,3-a][1,4]diazepin-6-yl)acetamido)prop-1-yn-1-yl)benzoate hydrochloride]",+++ (the degrading capacity was reduced by 70% or more)
6,"Cc1sc2c(c1C)C(c1ccc(Cl)cc1)=N[C@@H](CC(=O)N1CCC(CNc3ccc(C(=O)O)c(C#CCN)c3)CC1)c1nnc(C)n1-2 [5-139′, (S)-2-(3-aminoprop-1-yn-1-yl)-4-(((1-(2-(4-(4-chlorophenyl)-2,3,9-trimethyl-6H-thieno[3,2-f][1,2,4]triazolo[4,3-a][1,4]diazepin-6-yl)acetyl)piperidin-4-yl)methyl)amino)benzoic acid trifluoroacetic acid]",+ (the degrading capacity of each BRD4 degrader was reduced by less than 40%)
7,"COC(=O)c1ccc(C(=O)N2CCN(C(=O)C[C@@H]3N=C(c4ccc(Cl)cc4)c4c(sc(C)c4C)-n4c(C)nnc43)CC2)cc1C#CCN.Cl [5-140′, methyl (S)-2-(3-aminoprop-1-yn-1-yl)-4-(4-(2-(4-(4-chlorophenyl)-2,3,9-trimethyl-6H-thieno[3,2-f][1,2,4]triazolo[4,3-a][1,4]diazepin-6-yl)acetyl)piperazine-1-carbonyl)benzoate hydrochloride]",+++ (the degrading capacity was reduced by 70% or more)
8,"COC(=O)c1ccc(NC(=O)CCCNC(=O)C[C@@H]2N=C(c3ccc(Cl)cc3)c3c(sc(C)c3C)-n3c(C)nnc32)cc1C#CCNC(C)=O [5-148′, methyl (S)-2-(3-acetamidoprop-1-yn-1-yl)-4-(4-(2-(4-(4-chlorophenyl)-2,3,9-trimethyl-6H-thieno[3,2-f][1,2,4]triazolo[4,3-a][1,4]diazepin-6-yl)acetamido)butanamido)benzoate]",+ (the degrading capacity of each BRD4 degrader was reduced by less than 40%)
9,"COC(=O)c1ccc(NC(=O)CCCN(C)C(=O)C[C@@H]2N=C(c3ccc(Cl)cc3)c3c(sc(C)c3C)-n3c(C)nnc32)cc1C#CCN.Cl [5-149′, methyl (S)-2-(3-aminoprop-1-yn-1-yl)-4-(4-(2-(4-(4-chlorophenyl)-2,3,9-trimethyl-6H-thieno[3,2-f][1,2,4]triazolo[4,3-a][1,4]diazepin-6-yl)-N-methylacetamido)butanamido)benzoate hydrochloride]",+++ (the degrading capacity was reduced by 70% or more)
10,"COC(=O)c1ccc(N(C)C(=O)CCCNC(=O)C[C@@H]2N=C(c3ccc(Cl)cc3)c3c(sc(C)c3C)-n3c(C)nnc32)cc1C#CCN.Cl [5-150′, methyl (S)-2-(3-aminoprop-1-yn-1-yl)-4-(4-(2-(4-(4-chlorophenyl)-2,3,9-trimethyl-6H-thieno[3,2-f][1,2,4]triazolo[4,3-a][1,4]diazepin-6-yl)acetamido)-N-methylbutanamido)benzoate hydrochloride]",+++ (the degrading capacity was reduced by 70% or more)
11,"COC(=O)c1ccc(N(C)C(=O)C2CCN(C(=O)C[C@@H]3N=C(c4ccc(Cl)cc4)c4c(sc(C)c4C)-n4c(C)nnc43)CC2)cc1C#CCN [5-152′, methyl (S)-2-(3-aminoprop-1-yn-1-yl)-4-(1-(2-(4-(4-chlorophenyl)-2,3,9-trimethyl-6H-thieno[3,2-f][1,2,4]triazolo[4,3-a][1,4]diazepin-6-yl)acetyl)-N-methylpiperidine-4-carboxamido)benzoate trifluoroacetic acid]",+++ (the degrading capacity was reduced by 70% or more)
12,"COC(=O)c1ccc(C(=O)N(C)C2CCN(C(=O)C[C@@H]3N=C(c4ccc(Cl)cc4)c4c(sc(C)c4C)-n4c(C)nnc43)CC2)cc1C#CCN [5-153′, methyl (S)-2-(3-aminoprop-1-yn-1-yl)-4-((1-(2-(4-(4-chlorophenyl)-2,3,9-trimethyl-6H-thieno[3,2-f][1,2,4]triazolo[4,3-a][1,4]diazepin-6-yl)acetyl)piperidin-4-yl)(methyl)carbamoyl)benzoate trifluoroacetic acid]",+++ (the degrading capacity was reduced by 70% or more)
13,"COC(=O)c1ccc(NC(=O)C2CCN(C(=O)C[C@@H]3N=C(c4ccc(Cl)cc4)c4c(sc(C)c4C)-n4c(C)nnc43)CC2)cc1C#CCNS(N)(=O)=O [5-154′, methyl (S)-4-(1-(2-(4-(4-chlorophenyl)-2,3,9-trimethyl-6H-thieno[3,2-f][1,2,4]triazolo[4,3-a][1,4]diazepin-6-yl)acetyl)piperidine-4-carboxamido)-2-(3-(sulfamoylamino)prop-1-yn-1-yl)benzoate trifluoroacetic acid]",+++ (the degrading capacity was reduced by 70% or more)
14,"COC(=O)c1ccc(NC(=O)C2CCN(C(=O)C[C@@H]3N=C(c4ccc(Cl)cc4)c4c(sc(C)c4C)-n4c(C)nnc43)CC2)cc1C#CC1(N)CC1 [5-155′, methyl (S)-2-((1-aminocyclopropyl)ethynyl)-4-(1-(2-(4-(4-chlorophenyl)-2,3,9-trimethyl-6H-thieno[3,2-f][1,2,4]triazolo[4,3-a][1,4]diazepin-6-yl)acetyl)piperidine-4-carboxamido)benzoate trifluoroacetic acid]",++ (the degrading capacity was reduced by 40% to 70% (exclusive of 70))
15,"COC(=O)c1ccc(NC(=O)C2CCN(C(=O)C[C@@H]3N=C(c4ccc(Cl)cc4)c4c(sc(C)c4C)-n4c(C)nnc43)CC2)cc1C#CCNC(=O)OC(C)OC(=O)C(C)C (stereo partly drawn) [5-157′, methyl 4-(1-(2-((S)-4-(4-chlorophenyl)-2,3,9-trimethyl-6H-thieno[3,2-f][1,2,4]triazolo[4,3-a][1,4]diazepin-6-yl)acetyl)piperidine-4-carboxamido)-2-(3-(((1-(isobutyryloxy)ethoxy)carbonyl)amino)prop-1-yn-1-yl)benzoate]",+++ (the degrading capacity was reduced by 70% or more)
16,"COC(=O)c1ccc(NC(=O)C2CCN(C(=O)C[C@@H]3N=C(c4ccc(Cl)cc4)c4c(sc(C)c4C)-n4c(C)nnc43)CC2)cc1C#CCOS(N)(=O)=O [5-158′, methyl (S)-4-(1-(2-(4-(4-chlorophenyl)-2,3,9-trimethyl-6H-thieno[3,2-f][1,2,4]triazolo[4,3-a][1,4]diazepin-6-yl)acetyl)piperidine-4-carboxamido)-2-(3-(sulfamoyloxy)prop-1-yn-1-yl)benzoate trifluoroacetic acid]",+++ (the degrading capacity was reduced by 70% or more)
17,"COC(=O)c1ccc(N2CC3(CN(C(=O)C[C@@H]4N=C(c5ccc(Cl)cc5)c5c(sc(C)c5C)-n5c(C)nnc54)C3)C2)cc1C#CCNC(=O)OC(C)OC(=O)C(C)C (stereo partly drawn) [5-162′, methyl 4-(6-(2-((S)-4-(4-chlorophenyl)-2,3,9-trimethyl-6H-thieno[3,2-f][1,2,4]triazolo[4,3-a][1,4]diazepin-6-yl)acetyl)-2,6-diazaspiro[3.3]heptan-2-yl)-2-(3-(((1-(isobutyryloxy)ethoxy)carbonyl)amino)prop-1-yn-1-yl)benzoate]",+++ (the degrading capacity was reduced by 70% or more)
18,"COC(=O)c1ccc(N2CCN(CCCNC(=O)C[C@@H]3N=C(c4ccc(Cl)cc4)c4c(sc(C)c4C)-n4c(C)nnc43)CC2)cc1C#CCN.Cl [5-164′, methyl (S)-2-(3-aminoprop-1-yn-1-yl)-4-(4-(3-(2-(4-(4-chlorophenyl)-2,3,9-trimethyl-6H-thieno[3,2-f][1,2,4]triazolo[4,3-a][1,4]diazepin-6-yl)acetamido)propyl)piperazin-1-yl)benzoate hydrochloride]",+++ (the degrading capacity was reduced by 70% or more)
